Results published in US4327178A, “Urinary kallikrein assay: specific substrates and assay method” (University of Miami, priority 1981, dated 1982).
Values belong to the molecule of their own block, whether it stands above or below them. Where a SMILES comes first, the peptide text is derived from it. The star is where a group is joined. (3H)benzylamide = C-terminal benzylamide carrying tritium label; (3H)anilide = C-terminal anilide carrying tritium label; pNA = O=[N+]([O-])c1ccc(N*)cc1; Bz = O=C(c1ccccc1)*; X2 = Ic1cccc(CN*)c1; X3 = Ic1ccc(CN*)cc1; X1 = Ic1ccc(N*)cc1

Tests used:
Assay type in all cases: biochemical
[1] = molecular target: T1, human urinary kallikrein (Homo sapiens, UniProt P06870); experiment: Assay of human urinary kallikrein: suitability as substrate (in words)
T1 construct: dialyzed or gel-filtered human urine in the general A1 assay
Description: Human urine is treated to remove low molecular weight impurities, either by overnight dialysis against 0.9%(w/v) NaCl or by gel filtration. A typical reaction mixture may contain 50 μl dialyzed urine and 0.1 μCi of substrate at a final concentration of 20 ng/ml buffered with 0.1 M tris-HCl, pH 9.5, in a total reaction volume of 100 μl. Reaction tubes are incubated at 37° C. for two hours. Variations of incubation time and temperature for the purpose of increasing or decreasing the amount of product formed are known expedients within the scope of ordinary skill in the art. Reactions may be stopped by any technique which causes rapid termination of the enzyme-catalyzed reaction without significant alteration of the product concentration. Use of an excess volume of base, e.g., 1.0 ml of 0.1 NaOH, is preferred. The product is separated from the reaction mixture by extraction with a measured volume of an aprotic solvent such as toluene or ether, or by other suitable means such as ion-exchange chromatography. Where solvent extraction is employed, an aliquot of the solvent (containing reaction product) may be sampled for radioactivity counting. Scintillation counting is preferred for counting tritium, and use of an extracting solvent such as toluene or ether permits direct transfer of a solvent aliquot to the scintillation fluid.
A standard curve may be constructed substituting purified kallikrein for dialyzed urine. A unit of enzyme is defined herein as that amount required to hydrolyze substrate at an initial rate of 1% per minute at 37° C. The foregoing definition is applicable where the concentration of substrate is well below Km such that hydrolysis is first order with respect to substrate concentration. The number of kallikrein units/ml of dialyzed urine is given by [formula] where 1.0 ml of solvent is used for the extraction and an aliquot of 0.5 ml is taken for counting. The blank c.p.m. value is determined in a control reaction lacking enzyme but otherwise treated identically.

[2] = molecular target: purified urinary kallikrein (Homo sapiens, UniProt P06870); experiment: Urinary kallikrein-catalyzed hydrolysis of N-alpha-acylated substrates relative to non-acylated compounds; details: approximately 20 nM substrate, 60 ng purified urinary kallikrein, 100 μl 0.1 M tris HCl pH 9.5, 37° C., 15 minutes; conditions optimized for non-acylated substrate
[3] = molecular target: T1, human urinary kallikrein; experiment: Relative activity of halogenated (4-iodoanilide) substrates, spectrophotometric standard assay; details: 150 nmol substrate in 0.7 ml 0.05 tris-HCl, pH 8.1, 37° C.
Description: Unlabeled halogenated 4-iodoanilide substrates, prepared essentially as described in Example 5, were compared with respect to reaction rate with human urinary kallikrein in a standard assay. Each substrate, 150 nmol, was incubated with purified human urinary kallikrein in 0.7 ml of 0.05 tris-HCl, pH 8.1 at 37° C. At timed intervals, 100 μl of reaction mixture was added to 1.0 ml of 0.1 N NaOH. The resulting solution was extracted with CHCl3 and the organic phase was evaporated to dryness. The residue was dissolved in buffer and examined spectrophotometrically in the 240-300 nm range, where a difference spectrum between substrate and product is measureable. The results are shown in Table 1, with rates of hydrolysis expressed as nmol/min/mg enzyme.

[4] = molecular target: T1, human urinary kallikrein; experiment: Km and Vmax of substrates with purified human urinary kallikrein (Lineweaver-Burk double reciprocal plot)
Description: The double reciprocal plot method of H. Lineweaver and D. Burk (J.Am.Chem.Soc. 56, 658 (1934)) was used to estimate Km and Vmax for these substrates. Purified human urinary kallikrein prepared as described by Oza, N. B. and Ryan, J., supra, was used in this study. Reactions were conducted at 37° C. for 15 minutes with 62.5 ng of enzyme and the indicated amount of substrate, in 0.05 M tris-HCl pH 9.5. Reactions were terminated by the addition of a nine-fold excess of 0.1 N NaOH. The ^3 H-labeled product was separated from substrate by extraction with an equal volume (1 ml) of toluene. A 0.5 ml aliquot of the toluene phase was transferred to a scintillation vial containing a toluene-based scintillation fluid and counted. Results for H-ProPheArg-[^3 H]-benzylamide are shown in FIG. 1, and for H-ProPheArg-[^3 H]anilide in FIG. 2. The units of l/v were nmol^-1 min. Units of l/S were μmole^-1.liter.

[5] = test system: Thrombin; experiment: Reaction specificity: hydrolysis by serine proteases; details: printed on the pH 9.5 line (pH 7.5 line blank); No hydrolysis = no measureable reaction with a maximum of 0.5 mg/ml enzyme; 20 nM substrate, 37° C., 15 minutes
Description: (§1) The hydrolysis of H-ProPheArg-[^3 H]benzylamide by a series of serine proteases was measured. Reactions were carried out using 20 nM substrate in 0.1 M tris-HCl buffer, pH 7.5 or pH 9.5, at 37° C. for 15 minutes in the presence of varied amounts of enzyme. The results are shown in Table 2, expressed as the amount of enzyme necessary to hydrolyze 10% of the substrate under the given conditions. "No hydrolysis" is used to denote no measureable reaction with a maximum of 0.5 mg/ml enzyme.

[6] = test system: Trypsin; experiment: as above; details: 20 nM substrate, 0.1 M tris-HCl, 37° C., 15 minutes
Description: as §1

[7] = molecular target: T1, human urinary kallikrein; experiment: as above; details: 20 nM substrate, 0.1 M tris-HCl, 37° C., 15 minutes
Description: as §1

[8] = test system: α-Chymotrypsin; experiment: as above; details: printed on the pH 9.5 line (pH 7.5 line blank); No hydrolysis = no measureable reaction with a maximum of 0.5 mg/ml enzyme; 20 nM substrate, 37° C., 15 minutes
Description: as §1

[9] = test system: Urokinase; experiment: as above; details: printed on the pH 9.5 line (pH 7.5 line blank); No hydrolysis = no measureable reaction with a maximum of 0.5 mg/ml enzyme; 20 nM substrate, 37° C., 15 minutes
Description: as §1

[10] = test system: Plasmin; experiment: as above; details: 20 nM substrate, 0.1 M tris-HCl, 37° C., 15 minutes
Description: as §1

[11] = 62.5 ng purified enzyme, 0.05 M tris-HCl pH 9.5, 37° C., 15 minutes

T1 sequence (P06870 25-262): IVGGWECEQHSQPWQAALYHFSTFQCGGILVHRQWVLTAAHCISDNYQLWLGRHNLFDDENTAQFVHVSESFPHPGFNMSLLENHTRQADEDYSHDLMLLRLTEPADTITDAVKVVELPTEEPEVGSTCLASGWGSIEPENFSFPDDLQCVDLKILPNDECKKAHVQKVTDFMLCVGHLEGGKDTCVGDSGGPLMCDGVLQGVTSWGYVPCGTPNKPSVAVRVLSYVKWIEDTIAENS
Sequence of purified urinary kallikrein (P06870 25-262): as above

Molecule: N=C(N)NCCC[C@H](NC(=O)[C@H](Cc1ccccc1)NC(=O)[C@@H]1CCCN1C(=O)c1ccccc1)C(=O)Nc1ccc([N+](=O)[O-])cc1 [benzoyl-ProPheArg-p-nitroanilide, reference compound] (Bz-Pro-Phe-Arg-pNA)
activity as substrate for human urinary kallikrein (in words) [1]: inactive

activity as substrate for human urinary kallikrein (in words) [1]: suitable substrates
Molecule: H-SerProPheArg-[^3 H]-benzylamide (H-SPFR-{(3H)benzylamide})

activity as substrate for human urinary kallikrein (in words) [1]: suitable substrates
Molecule: N=C(N)NCCC[C@H](NC(=O)[C@H](Cc1ccccc1)NC(=O)[C@@H]1CCCN1C(=O)[C@H](CO)NC(=O)[C@@H](N)Cc1ccccc1)C(=O)NCc1ccc(I)cc1 [H-PheSerProPheArg-4-iodobenzylamide] (H-FSPFR-X3)

rate of hydrolysis relative to the non-acylated compounds [2]: 1/10
Molecule: [3H]c1cccc(CNC(=O)[C@H](CCCNC(=N)N)NC(=O)[C@H](Cc2ccccc2)NC(=O)[C@@H]2CCCN2C(=O)CCC(=O)O)c1 [succinyl derivative, Succinyl-ProPheArg-[^3 H]benzylamide]

activity as substrate for human urinary kallikrein (in words) [1]: substrates
Molecule: H-PheSerProPheArg-[^3 H] anilide (H-FSPFR-{(3H)anilide})

activity as substrate for human urinary kallikrein (in words) [1]: suitable substrates
Molecule: N=C(N)NCCC[C@H](NC(=O)[C@H](Cc1ccccc1)NC(=O)[C@@H]1CCCN1C(=O)[C@@H](N)CO)C(=O)NCc1cccc(I)c1 [H-SerProPheArg-3-iodobenzylamide] (H-SPFR-X2)

Molecule: N=C(N)NCCC[C@H](NC(=O)[C@H](Cc1ccccc1)NC(=O)[C@@H]1CCCN1)C(=O)Nc1ccc(I)cc1 [Pro--Phe--Arg--4-iodoanilide]
Rate of Hydrolysis [3]: 0.73 nmol/min/mg enzyme

rate of hydrolysis relative to the non-acylated compounds [2]: generally similar rates
Molecule: [3H]c1cccc(CNC(=O)[C@H](CCCNC(=N)N)NC(=O)[C@H](Cc2ccccc2)NC(=O)[C@@H]2CCCN2C(=O)C2CCCC2)c1 [cyclopentylcarbonylated]

activity as substrate for human urinary kallikrein (in words) [1]: suitable substrates
Molecule: N=C(N)NCCC[C@H](NC(=O)[C@H](Cc1ccccc1)NC(=O)[C@@H]1CCCN1C(=O)[C@H](CO)NC(=O)[C@@H](N)Cc1ccccc1)C(=O)NCc1cccc(I)c1 [H-PheSerProPheArg-3-iodobenzylamide] (H-FSPFR-X2)

activity as substrate for human urinary kallikrein (in words) [1]: excellent substrate
Vmax [4, 11]: 0.39 mmol/min/mg protein
Km ([4]; 62.5 ng purified enzyme, 0.05 M tris-HCl pH 9.5, 37° C., 15 minutes, listed as H-ProPheArg-[^3 H]-anilide): 0.8 µM
Km ([4]; 62.5 ng purified enzyme, 0.05 M tris-HCl pH 9.5, 37° C., 15 minutes, listed as ProPheArg-[^3 H] anilide): ~0.8 µM
Vmax ([4]; as summarised in the detailed description): approximately 0.39 mmol/min/mg
Molecule: H-ProPheArg-[^3 H]anilide

rate of hydrolysis relative to the non-acylated compounds [2]: generally similar rates
Molecule: [3H]c1cccc(CNC(=O)[C@H](CCCNC(=N)N)NC(=O)[C@H](Cc2ccccc2)NC(=O)[C@@H]2CCCN2C(C)=O)c1 [acetylated]

Molecule: N=C(N)NCCC[C@H](NC(=O)[C@@H](N)Cc1ccccc1)C(=O)Nc1ccc(I)cc1 [Phe--Arg--4-iodoanilide]
Rate of Hydrolysis [3]: Nil

Molecule: N=C(N)NCCC[C@H](NC(=O)[C@H](Cc1ccccc1)NC(=O)[C@@H]1CCCN1C(=O)[C@H](CO)NC(=O)[C@@H](N)Cc1ccccc1)C(=O)Nc1ccc(I)cc1 [Phe--Ser--Pro--Phe--Arg--4-iodoanilide] (H-FSPFR-X1)
Rate of Hydrolysis [3]: 1.12 nmol/min/mg enzyme

activity as substrate for human urinary kallikrein (in words) [1]: suitable substrates
Molecule: N=C(N)NCCC[C@H](NC(=O)[C@H](Cc1ccccc1)NC(=O)[C@@H]1CCCN1C(=O)[C@@H](N)CO)C(=O)NCc1ccc(I)cc1 [H-SerProPheArg-4-iodobenzylamide] (H-SPFR-X3)

Km [4, 11]: 3 µM
Vmax [4, 11]: 0.88 mmol/min/mg protein
Amount of Enzyme Required for 10% Hydrolysis [5]: No hydrolysis
Amount of Enzyme Required for 10% Hydrolysis ([6]; pH 7.5): 400 ng
Amount of Enzyme Required for 10% Hydrolysis ([6]; pH 9.5): 1,030 ng
Amount of Enzyme Required for 10% Hydrolysis ([7]; pH 7.5): 265 ng
Amount of Enzyme Required for 10% Hydrolysis ([7]; pH 9.5): 45 ng
Amount of Enzyme Required for 10% Hydrolysis (as enzyme concentration, in brackets) ([7]; pH 9.5): 10 nM
Amount of Enzyme Required for 10% Hydrolysis [8]: No hydrolysis
Amount of Enzyme Required for 10% Hydrolysis [9]: No hydrolysis
Amount of Enzyme Required for 10% Hydrolysis ([10]; pH 7.5): 17,200 ng
Amount of Enzyme Required for 10% Hydrolysis ([10]; pH 9.5): 30,600 ng
Molecule: [3H]c1cccc(CNC(=O)[C@H](CCCNC(=N)N)NC(=O)[C@H](Cc2ccccc2)NC(=O)[C@@H]2CCCN2)c1 [H-ProPheArg-[^3 H]benzylamide, H-ProPheArg-[^3 H] benzylamide]

Molecule: [3H]c1cccc(CNC(=O)[C@H](CCCNC(=N)N)NC(=O)[C@H](Cc2ccccc2)NC(=O)[C@@H]2CCCN2C(=O)c2ccccc2)c1 [Benzoyl-ProPheArg-[^3 H]benzylamide]
rate of hydrolysis relative to the non-acylated compounds [2]: about 1/2

activity as substrate for human urinary kallikrein (in words) [1]: substrates
Molecule: H-SerProPheArg-[^3 H]anilide (H-SPFR-{(3H)anilide})

activity as substrate for human urinary kallikrein (in words) [1]: suitable substrates
Molecule: H-PheSerProPheArg-[^3 H]benzylamide (H-FSPFR-{(3H)benzylamide})

Molecule: N=C(N)NCCC[C@H](NC(=O)[C@H](Cc1ccccc1)NC(=O)[C@@H]1CCCN1C(=O)[C@@H](N)CO)C(=O)Nc1ccc(I)cc1 [Ser--Pro--Phe--Arg--4-iodoanilide] (H-SPFR-X1)
Rate of Hydrolysis [3]: 0.62 nmol/min/mg enzyme
